Reference: patent publication US20260174673A1, “COMPOSITIONS AND METHODS USING A COMBINATION OF OLEUROPEIN AND TAURINE” (SOCIÉTÉ DES PRODUITS NESTLÉ S.A., priority 2022, published 2026)

System: myotubes differentiated from C2C12 cells
Assay: Mitochondrial calcium rise in C2C12 myotubes (mitochondrial aequorin luminescence)
Format: cell-based
Conditions: C2C12-derived myotubes, taurine alone at the indicated concentrations (μM) vs. control, compounds added 2 hours before measurement, 28 experiments, P<0.05 one-way ANOVA
Method: To test the effect of oleuropein (or oleuropein aglycone), taurine and their combination in living cells, the inventors measured mitochondrial calcium rise in myotubes differentiated from C2C12 cells. C2C12 cells were purchased from ATCC. C2C12 cells were seeded in 96-well plates at a density of 8000 cells per well in DMEM high glucose (Gibco)+10% fetal calf serum. Myotubes were differentiated by growing the C2C12 cells in DMEM containing 2% horse serum, for 4 days. Mitochondrial calcium measurements were carried out using myotubes infected with the adenovirus (from Sirion biotech) expressing the mitochondrially targeted calcium sensor mitochondrial mutated aequorin (Montero et al., 2002 Biochem J. 2002 Jul. 15; 365(Pt 2): 451-9). For aequorin reconstitution, 24 hours after infection, myotubes were incubated for 2 h at room temperature (22±°C.) in standard medium (145 mM NaCl, 5 mM KCl, 1 mM MgCl2, 1 mM CaCl2, 10 mM glucose and 10 mM Hepes, pH 7.4) with 1 μM wild-type coelenterazine. […] Luminescence was measured at the FLIPR Tetra Aequorin (Molecular Devices). Calibration of the luminescence data into calcium concentration was carried out using an algorithm as described previously (Montero et al, 2002, Biochem J. 2002 Jul. 15; 365(Pt 2): 451-9)). Custom module analysis based on Excel (Microsoft) and GhaphPad Prism 7.02 (GraphPad) software was used for quantification.

In the case of `NCCS(=O)(=O)O` [Taurine, 2-aminoethanesulfonic acid], the “integrated mitochondrial calcium rise, evoked by 5 mM caffeine” value is reported as “enhances mitochondrial Ca2+ elevation” and the “integrated mitochondrial calcium rise, evoked by 5 mM caffeine” value (listed as taurine) is reported as “enhances mitochondrial function”.
